From the CheMixHub ionic liquid set
Values joined by “and” are separate entries in the source; they are usually repeats but may differ in a detail not shown here. Equal entries are not always repeated.

Assay: xn = mol fraction of the nth substance listed

CCCC[n+]1ccn(C)c1.F[B-](F)(F)F + CS(C)=O
100 kPa
Details | electrical conductivity, 298.15 K [S/m] | viscosity, 298.15 K | viscosity, 303.15 K [mPa·s] | viscosity, 308.15 K [mPa·s] | viscosity, 313.15 K [mPa·s]
x1 = 0.0192 | – | 3.4 mPa·s | 2.9 | 2.46 | 2.17
x1 = 0.0447 | – | 5.06 mPa·s | 4.12 | 3.28 | 2.8
x1 = 0.0661 | – | 6.29 mPa·s | 5.13 | 3.85 | 3.2
x1 = 0.0722 | 0.974 | 3.144 mPa·s | – | – | –
x1 = 0.0974 | – | 8.27 mPa·s | 6.5 | 4.89 | 4.03
x1 = 0.1622 | – | 12.79 mPa·s | 9.68 | 6.72 | 5.22
x1 = 0.1764 | – | 5.489 mPa·s | – | – | –
x1 = 0.2138 | – | 16.68 mPa·s | 12.57 | 8.83 | 6.86
x1 = 0.2145 | 1.016 | 6.836 mPa·s | – | – | –
x1 = 0.2889 | – | 22.73 mPa·s | 17.15 | 11.9 | 9.21
x1 = 0.3225 | 0.831 | 11.38 mPa·s | – | – | –
x1 = 0.3735 | – | 30.07 mPa·s | 22.87 | 15.97 | 12.58
x1 = 0.4189 | 0.672 | 17.2 mPa·s | – | – | –
x1 = 0.4431 | – | 36.58 mPa·s | 27.97 | 19.78 | 15.65
x1 = 0.5247 | – | 44.65 mPa·s | 34.44 | 24.63 | 19.75
x1 = 0.607 | 0.436 | 34 mPa·s | – | – | –
x1 = 0.6172 | – | 54.3 mPa·s | 42.3 | 30.73 | 24.85
x1 = 0.6557 | 0.352 | 38.87 mPa·s | – | – | –
x1 = 0.6772 | – | 61 mPa·s | 47.6 | 34.97 | 28.49
x1 = 0.7513 | – | 69.5 mPa·s | 54.7 | 40.59 | 33.35
x1 = 0.7958 | – | 75 mPa·s | 59.2 | 44.05 | 36.37
x1 = 0.8283 | 0.284 | – | – | – | –
x1 = 0.8516 | – | 81.9 mPa·s | – | 48.7 | 40.3
x1 = 0.8954 | – | 87.5 mPa·s | 69.6 | 52.5 | 43.72
x1 = 0.9155 | – | 82.7 mPa·s | – | – | –
x1 = 0.9373 | – | 92.9 mPa·s | 74.1 | 56.2 | 46.9
x1 = 0.9687 | – | 97.1 mPa·s | 77.5 | 59 | 49.4
x1 = 1 | 0.243 | 101 mPa·s and 104.7 mPa·s | 80.7 | 61.5 | 51.5

CCCC[n+]1ccn(C)c1.F[B-](F)(F)F + Cc1ccccc1
viscosity [mPa·s], 101 kPa
Details | x2 = 0.05 | x2 = 0.1 | x2 = 0.2 | x2 = 0.3 | x2 = 0.33
298.15 K | 80.4 | 74.5 | 59.9 | 47.9 | 44.8
300.65 K | 54.8 | 50.7 | 39.3 | 29.3 | 27.8
303.15 K | 41.3 | 38.1 | 29.2 | 21.6 | 20.46
305.65 K | 33.3 | 30.6 | 23.5 | 17.49 | 16.56
308.15 K | 28 | 25.7 | 19.89 | 15 | 14.18
310.65 K | 24.4 | 22.36 | 17.41 | 13.35 | 12.59
313.15 K | 21.75 | 19.9 | 15.63 | 12.18 | 11.46
315.65 K | 19.74 | 18.04 | 14.3 | 11.31 | 10.62
318.15 K | 18.18 | 16.59 | 13.26 | 10.64 | 9.97
320.65 K | 16.93 | 15.43 | 12.44 | 10.11 | 9.46
323.15 K | 15.91 | 14.49 | 11.76 | 9.68 | 9.05
325.65 K | 15.07 | 13.71 | 11.21 | 9.32 | 8.7
328.15 K | 14.36 | 13.05 | 10.74 | 9.02 | 8.41
330.65 K | 13.75 | 12.48 | 10.35 | 8.77 | 8.17
333.15 K | 13.23 | 12 | 10 | 8.55 | 7.96
335.65 K | 12.77 | 11.58 | 9.7 | 8.36 | 7.77
338.15 K | 12.37 | 11.21 | 9.44 | 8.19 | 7.61

NC(CO)CO + CC[n+]1ccn(C)c1.[Cl-]
101 kPa, x2 = 0.667
Details | viscosity [mPa·s]
298.15 K | 297
303.15 K | 214
313.15 K | 115.9
323.15 K | 64.5
333.15 K | 41.4

CCCC[N+]1(C)CCCC1.N#C[N-]C#N + CCCC[N+]1(C)CCCC1.O=S(=O)([N-]S(=O)(=O)C(F)(F)F)C(F)(F)F
101 kPa, frequency 0 MHz, x2 = 0.5
Details | electrical conductivity [S/m]
318 K | 0.962
323 K | 1.12

101 kPa, x2 = 0.5
Details | viscosity [mPa·s]
318 K | 22.7
323 K | 19.7

CCCCCCCCO + CCCCCCCC(=O)[O-].c1c[nH+]c[nH]1
Details | viscosity [mPa·s]
293.15 K, 101.3 kPa, x1 = 1 | 9.18

O + CCCCCCCCCCCCOS(=O)(=O)[O-].[Na+] + CCCCCCCCCCCCCCCC[N+](C)(C)C.[Br-]
Details | electrical conductivity [S/m]
298.15 K, 101 kPa, frequency 0.001 MHz, x2 = 0, x3 = 0 | 0.000321

CN(CCO)CCO + CCCC[n+]1ccn(C)c1.F[B-](F)(F)F + O
viscosity [mPa·s], 101 kPa
Details | 293.15 K | 303.15 K | 313.15 K | 323.15 K | 333.15 K
x2 = 0.0987, x1 = 0.7994 | 86.7 | 48.2 | 28.8 | 18.4 | 12.32
x2 = 0.0989, x1 = 0.623 | 77.4 | 43.7 | 26.1 | 16.6 | 11.12
x2 = 0.0991, x1 = 0.4459 | 59.2 | 33.7 | 20.4 | 13.16 | 8.94
x2 = 0.0993, x1 = 0.2681 | 32.9 | 19.2 | 12.08 | 8.13 | 5.78
x2 = 0.0995, x1 = 0.0895 | 8.59 | 5.78 | 4.14 | 3.11 | 2.41
x2 = 0.1972, x1 = 0.7097 | 77.7 | 43.1 | 26 | 16.8 | 11.42
x2 = 0.1978, x1 = 0.5528 | 67.4 | 37.3 | 22.6 | 14.63 | 9.99
x2 = 0.1979, x1 = 0.3957 | 50.3 | 28.3 | 17.5 | 11.53 | 8.07
x2 = 0.1982, x1 = 0.2378 | 28.6 | 17 | 11.04 | 7.72 | 5.63
x2 = 0.1986, x1 = 0.0794 | 10.66 | 7.28 | 5.26 | 3.98 | 3.12
x2 = 0.2954, x1 = 0.6203 | 72.6 | 40.5 | 24.7 | 16.15 | 11.16
x2 = 0.2959, x1 = 0.4832 | 60.5 | 34.2 | 21.1 | 13.97 | 9.79
x2 = 0.2963, x1 = 0.3457 | 45 | 26.1 | 16.5 | 11.2 | 8.04
x2 = 0.2968, x1 = 0.2077 | 27.8 | 17.2 | 11.44 | 8.18 | 6.09
x2 = 0.2972, x1 = 0.0694 | 13.16 | 9.12 | 6.68 | 5.08 | 4
x2 = 0.3934, x1 = 0.531 | 68.7 | 39.1 | 24.3 | 16.14 | 11.32
x2 = 0.3939, x1 = 0.4136 | 56.5 | 32.9 | 20.8 | 14.05 | 10.02
x2 = 0.3944, x1 = 0.2958 | 43 | 25.9 | 16.8 | 11.65 | 8.49
x2 = 0.395, x1 = 0.1777 | 28.8 | 18.3 | 12.49 | 8.99 | 6.8
x2 = 0.3955, x1 = 0.0593 | 16.8 | 11.66 | 8.53 | 6.54 | 5.13
x2 = 0.4912, x1 = 0.442 | 66.5 | 38.9 | 24.6 | 16.7 | 11.88
x2 = 0.4917, x1 = 0.3442 | 57.5 | 34.4 | 21.8 | 14.94 | 10.7
x2 = 0.4923, x1 = 0.2461 | 44.3 | 27.4 | 18.2 | 12.72 | 9.42
x2 = 0.493, x1 = 0.1478 | 32.9 | 21.3 | 14.71 | 10.66 | 8.1
x2 = 0.4934, x1 = 0.0493 | 22.1 | 15.2 | 10.99 | 8.33 | 6.54
x2 = 0.5887, x1 = 0.3532 | 69.7 | 41.6 | 26.2 | 17.9 | 12.88
x2 = 0.5893, x1 = 0.275 | 60 | 37.1 | 23.5 | 16.3 | 11.86
x2 = 0.5898, x1 = 0.1966 | 49.1 | 30.6 | 20.7 | 14.67 | 10.75
x2 = 0.5903, x1 = 0.118 | 39.4 | 25.6 | 17.7 | 12.8 | 9.64
x2 = 0.5909, x1 = 0.0394 | 29.3 | 20 | 14.32 | 10.68 | 8.29
x2 = 0.6861, x1 = 0.2646 | 74.6 | 45.2 | 28.8 | 19.8 | 14.34
x2 = 0.6866, x1 = 0.2059 | 66.4 | 41 | 26.5 | 18.5 | 13.45
x2 = 0.687, x1 = 0.1472 | 57.5 | 35.8 | 24.1 | 17.1 | 12.65
x2 = 0.6874, x1 = 0.0884 | 47.3 | 30.3 | 20.9 | 15.08 | 11.36
x2 = 0.6877, x1 = 0.0295 | 40.3 | 26.6 | 18.8 | 13.79 | 10.55
x2 = 0.7831, x1 = 0.1762 | 84.7 | 51.6 | 32.9 | 22.7 | 16.5
x2 = 0.7836, x1 = 0.1371 | 78.6 | 48.6 | 31.5 | 22 | 16.01
x2 = 0.7839, x1 = 0.0979 | 72.2 | 44.8 | 29.8 | 20.9 | 15.35
x2 = 0.7842, x1 = 0.0588 | 65.6 | 41.8 | 28.1 | 20 | 14.73
x2 = 0.7845, x1 = 0.0196 | 56.4 | 36.7 | 25 | 18 | 13.44
x2 = 0.8801, x1 = 0.0879 | 102 | 62.1 | 40.3 | 27.1 | 19.5
x2 = 0.8804, x1 = 0.0684 | 99.2 | 60.7 | 39.7 | 26.8 | 19.3
x2 = 0.8805, x1 = 0.0294 | 90.7 | 56.4 | 37.2 | 25.5 | 18.5
x2 = 0.8806, x1 = 0.0098 | 80.9 | 50.9 | 33.8 | 23.7 | 17.3
x2 = 0.8806, x1 = 0.0488 | 94.5 | 58.3 | 38.5 | 26.1 | 18.9

CCCC[n+]1ccn(C)c1.F[B-](F)(F)F + NC=O
101 kPa, x1 = 1
Details | viscosity [mPa·s]
308.15 K | 58.4
318.15 K | 38.7

NC(N)=[NH2+].O=S(=O)([O-])C(F)(F)F + CN(CCO)CCO + O
Details | viscosity [mPa·s]
323.2 K, 101 kPa, x2 = 0.1179, x3 = 0.8792 | 3.5

CCC[N+]1(C)CCCC1.O=S(=O)([N-]S(=O)(=O)C(F)(F)F)C(F)(F)F + CCC[N+]1(C)CCCC1.N#C[N-]C#N
101 kPa, x2 = 0
Details | electrical conductivity [S/m] | viscosity [mPa·s]
313.15 K | 0.678 | 34.4
353.15 K | – | 11.6
